According to ChEMBL document CHEMBL4321809, “Structure-Reactivity Relationships on Substrates and Inhibitors of the Lysine Deacylase Sirtuin 2 from Schistosoma mansoni (SmSirt2)” (J Med Chem, 2019):
Active and inactive are the calls of the source. The calls are words filed in the database; no cut-off is given here.

Columns and labels:
[1] = target: T1, NAD-dependent protein deacetylase (Schistosoma mansoni, UniProt T1VXA1); experiment: Substrate activity at recombinant Schistosoma mansoni sirtuin 2 (21 to 322 residues) expressed in Escherichia coli BL21(DE3) cells assessed as ratio of Kcat to Km up to 30 mins in presence of ZMAL at saturated concentration by homogeneous fluorescence based analysis; type: ADME; settings: 0.5 h
T1 sequence (T1VXA1 whole entry): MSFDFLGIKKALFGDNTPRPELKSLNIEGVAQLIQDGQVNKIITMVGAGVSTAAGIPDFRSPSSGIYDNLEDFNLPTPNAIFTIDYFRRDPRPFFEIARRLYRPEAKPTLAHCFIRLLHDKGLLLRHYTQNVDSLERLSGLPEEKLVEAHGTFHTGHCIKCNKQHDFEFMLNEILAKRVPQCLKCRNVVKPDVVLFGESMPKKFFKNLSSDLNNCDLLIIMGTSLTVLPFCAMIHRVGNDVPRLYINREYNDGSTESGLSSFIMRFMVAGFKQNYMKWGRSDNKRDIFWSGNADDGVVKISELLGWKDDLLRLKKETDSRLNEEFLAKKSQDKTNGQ

[2] = target: T1, NAD-dependent protein deacetylase; experiment: Ratio of Kcat for recombinant Schistosoma mansoni sirtuin 2 (21 to 322 residues) expressed in Escherichia coli BL21(DE3) cells in presence of PSDKmyr to Kcat for recombinant Schistosoma mansoni sirtuin 2 (21 to 322 residues) expressed in Escherichia coli BL21(DE3) cells in presence of PSDKac; type: ADME
[3] = target: T2, NAD-dependent protein deacetylase (Schistosoma mansoni) (UniProt T1VXA1); experiment: Inhibition of recombinant Schistosoma mansoni sirtuin 2 (21 to 322 residues) expressed in Escherichia coli BL21(DE3) cells in presence of (Z)-(Oct)Lys-AMC
T2 sequence (whole entry): T1 sequence (T1VXA1 whole entry)

[4] = target: T2, NAD-dependent protein deacetylase (Schistosoma mansoni); experiment: Inhibition of recombinant Schistosoma mansoni sirtuin 2 (21 to 322 residues) expressed in Escherichia coli BL21(DE3) cells in presence of ZMAL
[5] = target: T3, NAD-dependent protein deacetylase sirtuin-2 (Homo sapiens, UniProt Q8IXJ6); experiment: Inhibition of human sirutin 2 assessed as inhibition of susbtrate demyristoylation at 20 uM using (Z)-(Myr)-Lys-AMC as substrate relative to control
T3 sequence (Q8IXJ6 whole entry): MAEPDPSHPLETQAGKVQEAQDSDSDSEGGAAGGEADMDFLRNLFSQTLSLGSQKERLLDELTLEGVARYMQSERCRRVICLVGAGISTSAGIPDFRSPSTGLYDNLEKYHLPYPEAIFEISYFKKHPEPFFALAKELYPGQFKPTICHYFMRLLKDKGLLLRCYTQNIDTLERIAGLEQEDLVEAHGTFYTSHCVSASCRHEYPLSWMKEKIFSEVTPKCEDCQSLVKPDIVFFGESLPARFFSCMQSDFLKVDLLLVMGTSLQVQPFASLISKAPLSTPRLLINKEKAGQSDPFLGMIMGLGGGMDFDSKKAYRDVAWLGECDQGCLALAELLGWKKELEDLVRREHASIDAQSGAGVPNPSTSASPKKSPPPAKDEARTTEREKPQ

[6] = target: T2, NAD-dependent protein deacetylase (Schistosoma mansoni); experiment: Inhibition of recombinant Schistosoma mansoni sirtuin 2 (21 to 322 residues) expressed in Escherichia coli BL21(DE3) cells in presence of (Z)-(Myr)Lys-AMC
[7] = target: T2, NAD-dependent protein deacetylase (Schistosoma mansoni); experiment: Inhibition of recombinant Schistosoma mansoni sirtuin 2 (21 to 322 residues) expressed in Escherichia coli BL21(DE3) cells in presence of (Z)-(But)Lys-AMC
[8] = target: T4, NAD-dependent protein deacetylase sirtuin-1 (Homo sapiens, UniProt Q96EB6); experiment: Inhibition of human sirtuin 1 at 500 uM relative to control
T4 sequence (Q96EB6 whole entry): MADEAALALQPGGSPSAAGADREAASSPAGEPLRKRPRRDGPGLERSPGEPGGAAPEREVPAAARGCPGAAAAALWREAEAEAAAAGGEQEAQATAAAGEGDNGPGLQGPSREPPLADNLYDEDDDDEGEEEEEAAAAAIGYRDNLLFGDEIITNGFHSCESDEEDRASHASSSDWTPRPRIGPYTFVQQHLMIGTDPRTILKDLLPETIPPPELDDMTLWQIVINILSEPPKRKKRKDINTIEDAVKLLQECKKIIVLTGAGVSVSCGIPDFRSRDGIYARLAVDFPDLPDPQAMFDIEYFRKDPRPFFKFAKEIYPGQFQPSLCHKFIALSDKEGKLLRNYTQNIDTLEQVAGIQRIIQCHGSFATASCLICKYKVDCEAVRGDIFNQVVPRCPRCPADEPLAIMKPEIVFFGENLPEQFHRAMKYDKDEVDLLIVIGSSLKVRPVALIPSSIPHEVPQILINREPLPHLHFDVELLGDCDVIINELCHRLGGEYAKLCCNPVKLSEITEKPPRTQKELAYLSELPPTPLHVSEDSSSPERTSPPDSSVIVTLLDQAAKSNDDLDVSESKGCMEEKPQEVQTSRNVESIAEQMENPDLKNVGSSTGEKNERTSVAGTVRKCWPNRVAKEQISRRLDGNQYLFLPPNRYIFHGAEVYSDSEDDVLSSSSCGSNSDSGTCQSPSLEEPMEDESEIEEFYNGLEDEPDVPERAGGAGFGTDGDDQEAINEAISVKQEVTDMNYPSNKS

[9] = target: T1, NAD-dependent protein deacetylase; experiment: Inhibition of recombinant Schistosoma mansoni sirtuin 2 (21 to 322 residues) expressed in Escherichia coli BL21(DE3) cells assessed as inhibition of substrate demyristoylation using (Z)-(Myr)-Lys-AMC as substrate
[10] = target: T1, NAD-dependent protein deacetylase; experiment: Inhibition of recombinant Schistosoma mansoni sirtuin 2 (21 to 322 residues) expressed in Escherichia coli BL21(DE3) cells assessed as inhibition of substrate deacetylation using ZMAL as substrate
[11] = target: T2, NAD-dependent protein deacetylase (Schistosoma mansoni); experiment: Inhibition of recombinant Schistosoma mansoni sirtuin 2 (21 to 322 residues) expressed in Escherichia coli BL21(DE3) cells in presence of (Z)-(Pal)Lys-AMC
[12] = target: T2, NAD-dependent protein deacetylase (Schistosoma mansoni); experiment: Inhibition of recombinant Schistosoma mansoni sirtuin 2 (21 to 322 residues) expressed in Escherichia coli BL21(DE3) cells in presence of (Z)-(Lau)Lys-AMC
[13] = target: T2, NAD-dependent protein deacetylase (Schistosoma mansoni); experiment: Inhibition of recombinant Schistosoma mansoni sirtuin 2 (21 to 322 residues) expressed in Escherichia coli BL21(DE3) cells in presence of (Z)-(Hex)Lys-AMC
[14] = target: T2, NAD-dependent protein deacetylase (Schistosoma mansoni); experiment: Inhibition of recombinant Schistosoma mansoni sirtuin 2 (21 to 322 residues) expressed in Escherichia coli BL21(DE3) cells in presence of (Z)-(Dec)Lys-AMC
[15] = target: T3, NAD-dependent protein deacetylase sirtuin-2; experiment: Inhibition of human sirtuin 2 assessed as inhibition of substrate deacetylation using ZMAL as substrate
[16] = target: T2, NAD-dependent protein deacetylase (Schistosoma mansoni); experiment: Inhibition of recombinant Schistosoma mansoni sirtuin 2 (21 to 322 residues) expressed in Escherichia coli BL21(DE3) cells assessed as inhibition of substrate deacetylation at 20 uM using ZMAL as substrate relative to control
[17] = target: T2, NAD-dependent protein deacetylase (Schistosoma mansoni); experiment: Inhibition of recombinant Schistosoma mansoni sirtuin 2 (21 to 322 residues) expressed in Escherichia coli BL21(DE3) cells assessed as inhibition of substrate demyristoylation at 20 uM using (Z)-(Myr)-Lys-AMC as substrate relative to control

Row | Kcat/Km [1] | Ratio [2] | IC50 [15] | inhibition [16] | inhibition [17] | SMILES | inhibition [3] | inhibition [4] | inhibition at 20 µM [5] | inhibition [6] | inhibition [7] | inhibition at 500 µM [8] | IC50 [9] | IC50 [10] | inhibition [11] | inhibition [12] | inhibition [13] | inhibition [14]
1 | 9.4 ×10¹ /s/M | 3 | – | – | – | NC(=O)c1ccc[n+]([C@H]2O[C@@H](COP(=O)([O-])OP(=O)(O)OC[C@H]3O[C@@H](n4cnc5c(N)ncnc54)[C@H](O)[C@@H]3O)[C@H](O)[C@@H]2O)c1 | – | – | – | – | – | – | – | – | – | – | – | –
2 | – | – | – | – | – | NC(=O)c1cccnc1 [NIACINAMIDE] | Active | Active | 8.7% | inactive | Active | 100% | 420 µM | 23.1 µM | inactive | inactive | Active | inactive
3 | – | – | 2.5 µM | < 15% | < 15% | O=C(NCc1cccnc1)c1ccc2c(c1)C1C3CCC(C3)C1C(c1ccccc1)N2 (stereo not drawn) | – | – | 42.8% | – | – | – | – | – | – | – | – | –
